Measurements: patent publication US9486506B2 (Novo Nordisk A/S, priority 2011, dated 2016)
Numbered stars: 1 amine (or outer) side, 2 acyl side, 3 side chain; on linkers, the order of the positions; unused ones are H or OH. Side chains are listed from the residue outwards. Peptide text beside a SMILES is read from it. * marks the point of attachment. C18 diacid = O=C(O)CCCCCCCCCCCCCCCCC(=O)*; γGlu = O=C(O)[C@H](CCC(=O)[*:2])N[*:1]; AEEA = NCCOCCOCC(=O)O

Target: T1, glucagon receptor (Homo sapiens, UniProt P47871)
T1 construct: expressed in transfected cells
T1 sequence (P47871 26-477): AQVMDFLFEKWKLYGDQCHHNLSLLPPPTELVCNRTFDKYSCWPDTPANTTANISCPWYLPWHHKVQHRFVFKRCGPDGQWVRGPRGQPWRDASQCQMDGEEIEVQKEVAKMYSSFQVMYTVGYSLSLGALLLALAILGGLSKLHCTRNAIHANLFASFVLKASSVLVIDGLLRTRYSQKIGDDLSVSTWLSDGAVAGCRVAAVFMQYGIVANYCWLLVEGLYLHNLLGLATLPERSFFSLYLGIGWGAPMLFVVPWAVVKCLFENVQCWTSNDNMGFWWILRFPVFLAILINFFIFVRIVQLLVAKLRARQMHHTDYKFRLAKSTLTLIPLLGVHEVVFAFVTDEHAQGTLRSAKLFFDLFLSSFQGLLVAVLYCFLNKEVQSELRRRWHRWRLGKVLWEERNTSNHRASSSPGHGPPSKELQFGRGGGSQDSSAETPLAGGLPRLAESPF
Test: Assay (I) Glucagon activity (cAMP biosensor, FLIPR)
Assay type: cell-based

SMILES	EC50
CC(C)C[C@H](NC(=O)[C@H](CC(=O)O)NC(=O)[C@H](CC(C)C)NC(=O)[C@H](Cc1ccc(O)cc1)NC(=O)[C@H](CCCNC(=N)N)NC(=O)[C@H](CO)NC(=O)[C@H](Cc1ccc(O)cc1)NC(=O)[C@H](CC(=O)O)NC(=O)[C@H](CO)NC(=O)[C@@H](NC(=O)[C@H](Cc1ccccc1)NC(=O)[C@@H](NC(=O)CNC(=O)[C@H](CCC(N)=O)NC(=O)[C@H](CO)NC(=O)[C@@H](N)Cc1c[nH]cn1)[C@@H](C)O)[C@@H](C)O)C(=O)N[C@@H](CCCNC(=N)N)C(=O)N[C@@H](CCCNC(=N)N)C(=O)N[C@@H](C)C(=O)N[C@@H](CCC(N)=O)C(=O)N[C@@H](CC(=O)O)C(=O)N[C@@H](Cc1ccccc1)C(=O)N[C@H](C(=O)N[C@@H](CCCCNC(=O)CC[C@H](NC(=O)CC[C@H](NC(=O)COCCOCCNC(=O)COCCOCCNC(=O)CC[C@H](NC(=O)CCCCCCCCCCCCCCCCC(=O)O)C(=O)O)C(=O)O)C(=O)O)C(=O)N[C@@H](Cc1c[nH]c2ccccc12)C(=O)N[C@@H](CC(C)C)C(=O)N[C@@H](CC(C)C)C(=O)N[C@@H](CCC(N)=O)C(=O)N[C@H](C(=O)O)[C@@H](C)O)C(C)C [Example 48, N^ε24-[(4S)-4-carboxy-4-[[(4S)-4-carboxy-4-[[2-[2-[2-[[2-[2-[2-[[(4S)-4-carboxy-4-(17-carboxyheptadecanoylamino)butanoyl]amino]ethoxy]ethoxy]acetyl]amino]ethoxy]ethoxy]acetyl]amino]butanoyl]amino]butanoyl]-[Arg12,Leu16,Lys24,Leu27,Gln28]-Glucagon] (H-HSQGTFTSDYSRYLDLRRAQDFVK([γGlu-γGlu-AEEA-AEEA-γGlu-C18 diacid])WLLQT-OH)	0.204 nM
CC(C)C[C@H](NC(=O)[C@H](CC(N)=O)NC(=O)[C@H](CC(C)C)NC(=O)[C@H](CC(C)C)NC(=O)[C@H](Cc1c[nH]c2ccccc12)NC(=O)[C@H](CCCCNC(=O)CC[C@H](NC(=O)COCCOCCNC(=O)COCCOCCNC(=O)CC[C@H](NC(=O)CCCCCCCCCCCCCCCCC(=O)O)C(=O)O)C(=O)O)NC(=O)[C@@H](NC(=O)[C@H](Cc1ccccc1)NC(=O)[C@H](CCC(=O)O)NC(=O)[C@H](CCC(N)=O)NC(=O)[C@H](C)NC(=O)[C@H](CCCNC(=N)N)NC(=O)[C@H](CCCNC(=N)N)NC(=O)[C@@H](NC(=O)[C@H](CC(=O)O)NC(=O)[C@H](CC(C)C)NC(=O)[C@H](Cc1ccc(O)cc1)NC(=O)[C@H](CCCCN)NC(=O)[C@H](CO)NC(=O)[C@H](Cc1ccc(O)cc1)NC(=O)[C@H](CC(=O)O)NC(=O)[C@H](CO)NC(=O)[C@@H](NC(=O)[C@H](Cc1ccccc1)NC(=O)[C@@H](NC(=O)CNC(=O)[C@H](CCC(N)=O)NC(=O)[C@H](CO)NC(=O)[C@@H](N)Cc1c[nH]cn1)[C@@H](C)O)[C@@H](C)O)[C@@H](C)O)C(C)C)C(=O)O [Example 37, N^ε24-[(4S)-4-carboxy-4-[[2-[2-[2-[[2-[2-[2-[[(4S)-4-carboxy-4-(17-carboxyheptadecanoylamino)butanoyl]amino]ethoxy]ethoxy]acetyl]amino]ethoxy]ethoxy]acetyl]amino]butanoyl]-[Thr16,Glu21,Lys24,Leu27,Leu29]-Glucagon] (H-HSQGTFTSDYSKYLDTRRAQEFVK([γGlu-AEEA-AEEA-γGlu-C18 diacid])WLLNL-OH)	0.183 nM
CC(C)C[C@H](NC(=O)[C@H](Cc1ccc(O)cc1)NC(=O)[C@H](CCCCN)NC(=O)[C@H](CO)NC(=O)[C@H](Cc1ccc(O)cc1)NC(=O)[C@H](CC(=O)O)NC(=O)[C@H](CO)NC(=O)[C@@H](NC(=O)[C@H](Cc1ccccc1)NC(=O)[C@@H](NC(=O)CNC(=O)[C@H](CCC(N)=O)NC(=O)[C@H](CO)NC(=O)[C@@H](N)Cc1c[nH]cn1)[C@@H](C)O)[C@@H](C)O)C(=O)N[C@@H](CCC(=O)O)C(=O)N[C@@H](CO)C(=O)N[C@@H](CCCNC(=N)N)C(=O)N[C@@H](CCCNC(=N)N)C(=O)N[C@@H](C)C(=O)N[C@@H](CCC(N)=O)C(=O)N[C@@H](CC(=O)O)C(=O)N[C@@H](Cc1ccccc1)C(=O)N[C@H](C(=O)N[C@@H](CCCCNC(=O)CC[C@H](NC(=O)CC[C@H](NC(=O)COCCOCCNC(=O)COCCOCCNC(=O)CC[C@H](NC(=O)CCCCCCCCCCCCCCCCC(=O)O)C(=O)O)C(=O)O)C(=O)O)C(=O)N[C@@H](Cc1c[nH]c2ccccc12)C(=O)N[C@@H](CC(C)C)C(=O)N[C@@H](CC(C)C)C(=O)N[C@@H](CCC(N)=O)C(=O)N[C@H](C(=O)O)[C@@H](C)O)C(C)C [Example 60, N^ε24-[(4S)-4-carboxy-4-[[(4S)-4-carboxy-4-[[2-[2-[2-[[2-[2-[2-[[(4S)-4-carboxy-4-(17-carboxyheptadecanoylamino)butanoyl]amino]ethoxy]ethoxy]acetyl]amino]ethoxy]ethoxy]acetyl]amino]butanoyl]amino]butanoyl]-[Glu15,Lys24,Leu27,Gln28]-Glucagon]	0.517 nM
